Experimental data as given in the supplement of paper PMC13380429.

Key:
Conditions in all cases: 72 h
Caco-2 [1] = experiment: cell viability relative to DMSO; higher = less toxic
Calu-3 [2] = experiment: as above
HepG2 [3] = experiment: as above
U2OS [4] = experiment: as above
Vero E6 [5] = experiment: as above
Caco-2 [6] = experiment: relative viability EC50 (midpoint between 100% and the lowest measured viability); higher = less toxic
Calu-3 [7] = experiment: as above
HepG2 [8] = experiment: as above
U2OS [9] = experiment: as above
Vero E6 [10] = experiment: as above
Caco-2 [11] = experiment: drug sensitivity score (DSS) for viability; higher = more toxic; extreme values may be limits of the assay
Calu-3 [12] = experiment: as above
HepG2 [13] = experiment: as above
U2OS [14] = experiment: as above
Vero E6 [15] = experiment: as above

Structure (SMILES)	cell viability (Caco-2 [1]; 1 nM) [%]	cell viability (Caco-2 [1]; 10 nM) [%]	cell viability (Caco-2 [1]; 100 nM) [%]	cell viability (Caco-2 [1]; 1000 nM) [%]	cell viability (Caco-2 [1]; 10000 nM) [%]	cell viability (Calu-3 [2]; 1 nM) [%]	cell viability (Calu-3 [2]; 10 nM) [%]	cell viability (Calu-3 [2]; 100 nM) [%]	cell viability (Calu-3 [2]; 1000 nM) [%]	cell viability (Calu-3 [2]; 10000 nM) [%]	cell viability (HepG2 [3]; 1 nM) [%]	cell viability (HepG2 [3]; 10 nM) [%]	cell viability (HepG2 [3]; 100 nM) [%]	cell viability (HepG2 [3]; 1000 nM) [%]	cell viability (HepG2 [3]; 10000 nM) [%]	cell viability (U2OS [4]; 1 nM) [%]	cell viability (U2OS [4]; 10 nM) [%]	cell viability (U2OS [4]; 100 nM) [%]	cell viability (U2OS [4]; 1000 nM) [%]	cell viability (U2OS [4]; 10000 nM) [%]	cell viability (Vero E6 [5]; 1 nM) [%]	cell viability (Vero E6 [5]; 10 nM) [%]	cell viability (Vero E6 [5]; 100 nM) [%]	cell viability (Vero E6 [5]; 1000 nM) [%]	cell viability (Vero E6 [5]; 10000 nM) [%]	relative viability EC50 (Caco-2 [6]) [µM]	relative viability EC50 (Calu-3 [7]) [µM]	relative viability EC50 (HepG2 [8]) [µM]	relative viability EC50 (U2OS [9]) [µM]	relative viability EC50 (Vero E6 [10]) [µM]	drug sensitivity score (Caco-2 [11])	drug sensitivity score (Calu-3 [12])	drug sensitivity score (HepG2 [13])	drug sensitivity score (U2OS [14])	drug sensitivity score (Vero E6 [15])
CCOC(=O)COc1ccc2c(=O)cc(-c3ccccc3)oc2c1 [efloxate]	93	88.6	101	101	96.1	105	98.9	85.8	83.5	99.1	97.9	100	98.3	99.2	99.3	95.4	95.5	98.7	96.7	99.2	97	100	91.9	101	106	> 10	> 10	> 10	> 10	> 10	0	3	0	0	0
COC(=O)N[C@H](C(=O)N1CCC[C@H]1c1nc(-c2ccc3c(c2)O[C@@H](c2ccccc2)n2c-3cc3cc(-c4c[nH]c([C@@H]5CCCN5C(=O)[C@@H](NC(=O)OC)C(C)C)n4)ccc32)c[nH]1)C(C)C [elbasvir]	85	103	93.1	96.1	101	99.9	106	95.8	107	102	110	88.7	108	104	96.8	90.3	100	98.2	97.8	99.7	105	98.5	95.3	95.5	107	> 10	> 10	> 10	> 10	> 10	0	0	0	0	0
O=c1oc2c(O)c(O)cc3c(=O)oc4c(O)c(O)cc1c4c23 [ellagic-acid]	104	95.8	104	98.5	96.6	98.4	95.9	99.4	100	93.2	93.6	97	97.5	96.4	91.9	99.3	99.6	103	100	105	99.1	106	100	105	107	> 10	> 10	> 10	> 10	> 10	0	0	0	0	0
CCOC(=O)Nc1ccc2c(c1)N(C(=O)CCN(CC)CC)c1ccccc1S2 [ethacizin]	94.6	82.9	97.8	103	97.6	98.3	94.8	97.4	99.2	98.1	86.4	90.4	80.8	92.7	104	97.2	105	95.6	101	95.9	104	91.8	103	88.9	106	> 10	> 10	> 10	> 10	> 10	0	0	0.2	0	0
O=C(OCC(O)CO)c1ccccc1Nc1ccnc2c(C(F)(F)F)cccc12 (stereo not given) [floctafenine]	92.2	90.2	95.9	92.5	96.9	108	98.5	95.9	98.7	81.1	101	106	107	105	92.2	101	99.4	100	98.5	93.4	98.3	107	95.4	101	104	> 10	> 10	> 10	> 10	> 10	0	0.7	0	0	0
CC(C)C(=O)Nc1ccc([N+](=O)[O-])c(C(F)(F)F)c1 [flutamide]	107	108	92.1	116	85.7	101	96.2	99.6	101	94.9	94.5	107	96.9	84.2	90.7	92	97.2	94.3	100	93.8	106	89.8	104	107	111	> 10	> 10	> 10	> 10	> 10	0	0	2	0	0
COc1ccc(-c2coc3cc(O)ccc3c2=O)cc1 [formononetin]	101	101	100	95.6	94.2	103	94.5	102	89.8	93.7	102	106	97.8	104	96.7	102	98	99.9	102	103	102	101	99.9	105	102	> 10	> 10	> 10	> 10	> 10	0	0	0	0	0
